Test results as given in patent US12661324B2, “Solid dispersion, pharmaceutical preparations, preparation method, and application thereof” (ASCENTAGE PHARMA (SUZHOU) CO., LTD., priority 2020, dated 2026).
Values after ≈ are worked out from the molar mass of the structure shown.

Assays:
[1] = Drug dissolution test, rotating basket method, 0.2% SDS solution; format: physicochemical; conditions: 500 ml, 100 rpm
Experimental: Drug dissolution test was performed on the solid dispersion (rotating basket method, 0.2% SDS solution, 500 ml, 100 rpm). […] Under the same conditions, the drug dissolution of API (compound prepared in example 1) in 10 min, 30 min and 60 min were 7%, 13% and 22% respectively.

[2] = Equilibrium solubility test; format: physicochemical; conditions: 37 °C, thermodynamic from solid
Experimental: After 2 and 24 hours of high-speed centrifugation, the supernatant was taken, and the concentration of API in the supernatant was determined by high-performance liquid chromatography.

[3] = Pharmacokinetic test in mice (Effect Example 3); format: in vivo; conditions: mouse, plasma, po, male mice, single gavage
Experimental: Four groups of male mice were randomly divided into two groups: test article 1 (solid dispersion prepared in Example 7 and suspension prepared with reverse osmosis water as solvent), the dosages are 25 mg/kg and 100 mg/kg respectively; test article 2 (API prepared in example 1 and suspension prepared with aqueous solution containing 0.2% HPMC-E5), the dosages are 25 mg/kg and 100 mg/kg, respectively. The animals in each group were administered by single gavage.
All animals collected blood samples and separated plasma at 0.087 h, 0.25 h, 0.5 h, 1 h, 2 h, 4 h, 6 h, 8 h and 24 h after administration. All plasma samples were analyzed by LC-MS/Ms. the lower limit of quantification of the method was 10 ng/ml. The plasma concentration data were analyzed by non-compartmental model method (NCA) of metabolic kinetic data analysis software winnonlin8.0.0.3176, and the pharmacokinetic parameters were calculated to evaluate the kinetic characteristics of API in animals after administration.

[4] = Solubility in aqueous medium pH 1-7; format: physicochemical; conditions: aqueous buffer, thermodynamic from solid, 37° C. for 24 hours, acidic or neutral medium pH 1-7
Excerpt: The compound of formula (I) is usually in crystalline form and has very low solubility. […] Even after high humidity (60%) and long-term (12 months) storage, the compound of formula (1) in the solid dispersion of the invention will not be transformed or degraded.

## O=C(NS(=O)(=O)c1ccc(NC[C@H]2COCCO2)c([N+](=O)[O-])c1)c1ccc(N2CCN(CC3=C(c4ccc(Cl)cc4)CC4(CCC4)CC3)CC2)cc1Oc1cnc2[nH]ccc2c1 [API, 4-{4-{[6-(4-Chloro-phenyl)-spiro[3,5]nonane-6-ene-7-yl]methyl}-piperazine-1-yl}-N-{{3-nitro-4-[((2S)-[1,4]dioxane-2-ylmethyl)-amino]phenyl}sulfonyl}-2-(1H-pyrrolo[2,3-b]pyridin-5-yloxy)-benzamide]
[1]; 10 min
  drug dissolution: 7%
[1]; 30 min
  drug dissolution: 13%
[1]; 60 min
  drug dissolution: 22%
[2]; FaSSIF
  solubility at 2 h: 1.3 µg/mL (≈ 1.47 µM)
  solubility at 24 h: 0.6 µg/mL (≈ 0.68 µM)
[2]; FeSSIF
  solubility at 2 h: 2.5 µg/mL (≈ 2.83 µM)
  solubility at 24 h: 0.5 µg/mL (≈ 0.567 µM)
[3]; 25 mg/kg
  AUC(0-inf): 637 ng·h/mL
  AUC(0-t): 384 ng·h/mL
  Cmax: 82.2 ng/mL
  Tmax: 3.33 h
  half-life: 7.41 h
[3]; 100 mg/kg
  AUC(0-inf): 1120 ng·h/mL
  AUC(0-t): 1100 ng·h/mL
  Cmax: 105 ng/mL
  Tmax: 1 h
  half-life: 3.7 h

## O=C(NS(=O)(=O)c1ccc(NC[C@H]2COCCO2)c([N+](=O)[O-])c1)c1ccc(N2CCN(CC3=C(c4ccc(Cl)cc4)CC4(CCC4)CC3)CC2)cc1Oc1cnc2[nH]ccc2c1 [compound of formula (I), 4-{4-{[6-(4-Chloro-phenyl)-spiro[3,5]nonane-6-ene-7-yl]methyl}-piperazine-1-yl}-N-{{3-nitro-4-[((2S)-[1,4]dioxane-2-ylmethyl)-amino]phenyl}sulfonyl}-2-(1H-pyrrolo[2,3-b]pyridin-5-yloxy)-benzamide]
[4]
  solubility at 24 h: 0.3 to 0.6 µg/mL
